Experimental data taken from US9682141B2, “Combination of kinase inhibitors and uses thereof” (INTELLIKINE LLC, priority 2011, dated 2017).
Like-named read-outs stand apart in the source and are kept apart here.

Assays:
Assay type in all cases: biochemical
PI3K β = PI3K β (Homo sapiens (Human), UniProt P42338); assay: PI 3-Kinase (human) HTRF assay, p110β/p85α
mTORC = mTORC (Homo sapiens (Human), UniProt P42345); assay: mTOR inhibition assay (radiometric or LanthaScreen TR-FRET)
PI3K α = PI3K α (Homo sapiens (Human), UniProt P42336); assay: PI 3-Kinase (human) HTRF assay, p110α/p85α
PI3K α, sequence (P42336 whole entry): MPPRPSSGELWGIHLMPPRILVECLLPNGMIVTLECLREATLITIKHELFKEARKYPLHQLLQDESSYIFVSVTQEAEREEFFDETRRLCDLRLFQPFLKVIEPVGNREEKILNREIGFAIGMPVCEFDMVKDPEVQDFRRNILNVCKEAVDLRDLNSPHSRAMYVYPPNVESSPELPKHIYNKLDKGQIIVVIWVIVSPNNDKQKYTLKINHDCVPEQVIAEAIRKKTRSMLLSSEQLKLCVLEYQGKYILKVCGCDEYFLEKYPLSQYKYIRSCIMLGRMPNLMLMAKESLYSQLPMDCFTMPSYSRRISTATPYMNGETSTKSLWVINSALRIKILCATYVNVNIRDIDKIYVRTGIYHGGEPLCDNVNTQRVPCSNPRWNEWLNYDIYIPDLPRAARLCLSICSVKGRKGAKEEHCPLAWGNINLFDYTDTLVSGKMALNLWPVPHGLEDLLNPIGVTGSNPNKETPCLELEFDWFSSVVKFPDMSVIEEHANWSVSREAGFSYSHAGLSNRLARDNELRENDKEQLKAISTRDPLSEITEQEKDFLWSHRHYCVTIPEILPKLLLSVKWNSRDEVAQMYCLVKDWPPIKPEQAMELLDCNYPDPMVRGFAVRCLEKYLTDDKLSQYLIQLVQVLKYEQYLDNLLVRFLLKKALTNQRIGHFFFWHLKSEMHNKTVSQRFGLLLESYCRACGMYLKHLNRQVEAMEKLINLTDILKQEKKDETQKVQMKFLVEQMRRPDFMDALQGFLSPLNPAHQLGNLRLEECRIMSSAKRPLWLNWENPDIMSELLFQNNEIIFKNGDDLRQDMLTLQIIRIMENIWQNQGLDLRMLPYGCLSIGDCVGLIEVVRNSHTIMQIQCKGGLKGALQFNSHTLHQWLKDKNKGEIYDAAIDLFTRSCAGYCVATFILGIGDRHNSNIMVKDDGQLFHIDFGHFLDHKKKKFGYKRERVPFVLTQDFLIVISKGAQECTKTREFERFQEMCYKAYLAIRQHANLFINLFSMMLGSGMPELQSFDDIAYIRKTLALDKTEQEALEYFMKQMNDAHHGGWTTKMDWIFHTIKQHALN
PI3K α, sequence (P27986 whole entry partner): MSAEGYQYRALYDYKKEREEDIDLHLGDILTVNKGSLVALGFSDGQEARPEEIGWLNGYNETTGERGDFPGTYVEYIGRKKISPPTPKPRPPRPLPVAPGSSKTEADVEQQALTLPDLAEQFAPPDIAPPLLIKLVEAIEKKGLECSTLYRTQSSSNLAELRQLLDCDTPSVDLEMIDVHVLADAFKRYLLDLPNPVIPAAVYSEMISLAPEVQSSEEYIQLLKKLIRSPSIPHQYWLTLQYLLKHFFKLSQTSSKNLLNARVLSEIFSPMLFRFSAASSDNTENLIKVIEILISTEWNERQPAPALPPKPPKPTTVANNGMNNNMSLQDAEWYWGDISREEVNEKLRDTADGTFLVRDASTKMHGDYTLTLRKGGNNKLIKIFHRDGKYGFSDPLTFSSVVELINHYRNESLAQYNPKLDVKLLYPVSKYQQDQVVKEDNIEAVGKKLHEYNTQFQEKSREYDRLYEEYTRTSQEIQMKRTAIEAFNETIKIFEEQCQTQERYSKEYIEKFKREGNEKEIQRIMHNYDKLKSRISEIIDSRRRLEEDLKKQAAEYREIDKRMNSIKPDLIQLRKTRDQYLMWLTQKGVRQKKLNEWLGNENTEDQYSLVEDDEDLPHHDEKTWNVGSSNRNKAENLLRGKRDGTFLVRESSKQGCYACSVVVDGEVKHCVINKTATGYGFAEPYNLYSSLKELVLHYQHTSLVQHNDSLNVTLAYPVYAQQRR

PI3K γ = PI3K γ (Homo sapiens (Human), UniProt P48736); assay: PI 3-Kinase (human) HTRF assay, p110γ
[1] = PI 3-Kinase (human) HTRF assay, p110δ/p85α; settings: read-out: PI3K γ IC50
PI3K δ = PI3K δ (Homo sapiens (Human), UniProt O00329); assay: PI 3-Kinase (human) HTRF assay, p110δ/p85α
PI3K δ, sequence (O00329 whole entry): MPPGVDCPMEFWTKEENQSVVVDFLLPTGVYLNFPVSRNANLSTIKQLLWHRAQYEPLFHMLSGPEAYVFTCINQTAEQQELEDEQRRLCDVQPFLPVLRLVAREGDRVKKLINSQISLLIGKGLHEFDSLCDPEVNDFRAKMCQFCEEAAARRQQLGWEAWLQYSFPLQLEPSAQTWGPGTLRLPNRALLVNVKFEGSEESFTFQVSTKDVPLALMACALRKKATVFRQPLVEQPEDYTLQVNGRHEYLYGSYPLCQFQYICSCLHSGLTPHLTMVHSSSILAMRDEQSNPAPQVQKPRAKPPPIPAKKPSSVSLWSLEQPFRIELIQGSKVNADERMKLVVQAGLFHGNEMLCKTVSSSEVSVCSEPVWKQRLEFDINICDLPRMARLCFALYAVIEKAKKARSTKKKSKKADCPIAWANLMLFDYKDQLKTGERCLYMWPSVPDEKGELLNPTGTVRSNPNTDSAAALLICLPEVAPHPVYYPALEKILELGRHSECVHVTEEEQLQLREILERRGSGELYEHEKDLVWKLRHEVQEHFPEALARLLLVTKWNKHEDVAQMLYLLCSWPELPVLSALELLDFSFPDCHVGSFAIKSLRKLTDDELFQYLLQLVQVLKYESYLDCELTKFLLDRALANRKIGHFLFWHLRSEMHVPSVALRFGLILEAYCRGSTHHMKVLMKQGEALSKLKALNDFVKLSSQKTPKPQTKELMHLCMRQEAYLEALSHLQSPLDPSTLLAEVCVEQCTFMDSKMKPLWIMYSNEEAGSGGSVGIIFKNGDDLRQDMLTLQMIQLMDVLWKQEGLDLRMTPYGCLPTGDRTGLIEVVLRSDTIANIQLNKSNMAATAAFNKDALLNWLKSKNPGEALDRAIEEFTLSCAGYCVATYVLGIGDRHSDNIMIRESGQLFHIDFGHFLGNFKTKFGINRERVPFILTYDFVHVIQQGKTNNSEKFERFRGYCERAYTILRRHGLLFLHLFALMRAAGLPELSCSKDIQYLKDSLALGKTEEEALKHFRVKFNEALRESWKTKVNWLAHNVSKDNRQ
PI3K δ, sequence (P27986 whole entry partner): as the sequence (P27986 whole entry partner) above

PI3K β, sequence (P42338 whole entry): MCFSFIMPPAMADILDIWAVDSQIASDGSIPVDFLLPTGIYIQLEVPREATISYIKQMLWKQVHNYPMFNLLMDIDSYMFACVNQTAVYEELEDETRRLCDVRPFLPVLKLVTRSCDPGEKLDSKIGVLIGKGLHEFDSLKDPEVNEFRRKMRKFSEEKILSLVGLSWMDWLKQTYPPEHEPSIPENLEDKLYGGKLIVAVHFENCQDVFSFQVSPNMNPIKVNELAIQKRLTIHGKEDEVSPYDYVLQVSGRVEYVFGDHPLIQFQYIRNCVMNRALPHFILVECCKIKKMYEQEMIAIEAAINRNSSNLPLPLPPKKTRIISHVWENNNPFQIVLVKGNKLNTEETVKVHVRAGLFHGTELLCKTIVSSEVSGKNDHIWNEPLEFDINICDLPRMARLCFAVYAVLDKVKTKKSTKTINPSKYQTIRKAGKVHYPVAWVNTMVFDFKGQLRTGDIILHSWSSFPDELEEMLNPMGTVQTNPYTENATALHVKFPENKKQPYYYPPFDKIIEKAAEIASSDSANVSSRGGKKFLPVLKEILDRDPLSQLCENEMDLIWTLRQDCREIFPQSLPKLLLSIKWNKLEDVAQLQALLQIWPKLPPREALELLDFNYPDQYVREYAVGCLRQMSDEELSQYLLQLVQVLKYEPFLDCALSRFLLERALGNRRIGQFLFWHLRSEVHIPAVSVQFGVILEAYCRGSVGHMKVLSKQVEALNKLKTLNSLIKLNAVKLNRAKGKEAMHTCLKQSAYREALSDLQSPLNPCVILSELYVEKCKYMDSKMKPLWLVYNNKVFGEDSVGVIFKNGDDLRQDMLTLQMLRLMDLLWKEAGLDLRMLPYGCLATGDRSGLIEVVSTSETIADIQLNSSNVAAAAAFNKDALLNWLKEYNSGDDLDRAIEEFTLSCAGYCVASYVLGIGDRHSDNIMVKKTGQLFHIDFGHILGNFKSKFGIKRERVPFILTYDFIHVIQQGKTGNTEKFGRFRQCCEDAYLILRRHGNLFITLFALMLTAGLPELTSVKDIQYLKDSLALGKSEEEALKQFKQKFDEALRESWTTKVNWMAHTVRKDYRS
PI3K β, sequence (P27986 whole entry partner): as the sequence (P27986 whole entry partner) above

Structure (SMILES)	IC50 (PI3K β) [µM]	IC50 (PI3K α) [µM]	IC50 (PI3K γ; read-out: PI3K γ IC50) [µM]	IC50 (PI3K δ) [µM]	IC50 (mTORC) [µM]	IC50 (PI3K γ; read-out: PI3K δ IC50) [µM]	IC50 [1] [µM]
Cc1ccn(C2CN(c3cnc4ccc(-c5ccc6oc(N)nc6c5)cc4n3)C2)n1	< 10	< 0.1	–	–	> 10	< 10	< 10
Nc1nc2cc(-c3ccc4oc(N)nc4c3)ccc2o1	–	< 1	–	–	< 10	< 0.1	< 10
CC(C)[C@@H](N)C(=O)N1CCN(c2cnc3ccc(-c4ccc5oc(N)nc5c4)cc3n2)CC1	< 1	< 0.1	–	–	< 10	< 1	< 1
Nc1nc2cc(-c3cccc4[nH]nc(N)c34)ccc2o1	> 10	> 10	–	–	> 10	> 10	–
CN1CCN(c2cnc3ccc(-c4ccc5oc(N)nc5c4)cc3n2)CC1	< 0.1	< 0.1	< 1	–	> 10	–	–
Nc1ncnc2ccc(-c3ccc4nccc(-c5ccncc5)c4c3)cc12 [Compound 8]	> 10	< 10	< 1	–	> 10	–	–
C[C@@H]1CN(C2CN(c3cnc4ccc(-c5ccc6oc(N)nc6c5)nc4n3)C2)CCN1	> 10	< 0.1	> 10	–	> 10	–	–
Nc1ncc2cc(-c3ccc4nccc(-c5ccncc5)c4c3)ccc2n1 [Compound 9]	< 10	< 1	< 1	–	> 10	–	–
C[C@@H]1CN(c2cnc3ccc(-c4ccc5oc(N)nc5c4)nc3c2)CCN1	< 1	< 0.1	< 10	–	> 10	–	–
Nc1nc2cc(-c3ccc4ncc(C(=O)N[C@H]5CC[C@H](O)CC5)n4c3)ccc2o1	< 10	–	< 0.1	–	> 10	–	–
CC(C)Oc1nc(-c2ccc3oc(N)nc3c2)cnc1N	< 10	< 10	–	–	< 1	< 10	–
N#Cc1cnc2ccc(-c3ccc4oc(N)nc4c3)cc2c1Cl	–	–	–	–	< 1	–	–
CN1CCN(c2cnc3ccc(-c4ccc5nc(N)oc5c4)cc3n2)CC1	< 0.1	< 1	< 10	> 10	–	–	–
Nc1nc2cc(-c3ccc4ncc(N5CC6CCC(C5)O6)nc4n3)ccc2o1	> 10	< 0.1	< 1	> 10	–	–	–
Nc1nc2cc(-c3ccc4nc(N)oc4c3)ccc2o1	–	< 1	–	–	< 10	< 0.1	< 1
NCC(=O)N1CCN(c2cnc3ccc(-c4ccc5oc(N)nc5c4)nc3n2)CC1	< 10	< 0.1	< 10	< 10	–	–	–
CN(CCN1CCOCC1)c1cnc2ccc(-c3ccc4oc(N)nc4c3)cc2n1	< 10	< 1	< 10	> 10	–	–	–
CN1CCN(C(=O)c2cnc3ccc(-c4ccc5oc(N)nc5c4)nn23)CC1	> 10	< 10	< 10	> 10	–	–	–
CN1CCN(C(=O)c2cnc3ccc(-c4ccc5oc(N)nc5c4)cc3n2)CC1	> 10	< 10	> 10	> 10	–	–	–
CN1CCCN(c2cnc3ccc(-c4ccc5oc(N)nc5c4)cc3n2)CC1	< 1	< 1	< 10	> 10	–	–	–
CN1CCN(c2cnc3ccc(-c4ccc5sc(N)nc5c4)cc3n2)CC1	< 0.1	< 1	< 10	> 10	–	–	–
Nc1nc2cc(-c3ccc4ncn(C5CCOCC5)c4c3)ccc2o1 [Compound 48]	> 10	< 10	> 10	> 10	–	–	–
Nc1nc2cc(-c3ccc4ncn(C5CCNCC5)c(=O)c4c3)ccc2o1	< 10	< 0.1	< 10	> 10	–	–	–
Nc1nc2cc(-c3ccc4ncc(N5CC6CCC(C5)O6)cc4n3)ccc2o1	> 10	< 0.1	< 0.1	> 10	–	–	–
C[C@H]1CN(C2CN(c3cnc4ccc(-c5ccc6oc(N)nc6c5)nc4n3)C2)CCN1C	> 10	< 0.1	> 10	< 10	–	–	–
CC(=O)NC1CCN(C(=O)c2cnc3ccc(-c4ccc5oc(N)nc5c4)cn23)CC1	< 10	< 1	< 10	< 10	–	–	–
Nc1nc2cc(-c3ccc4ncc(N5CCNCC5)nc4c3)ccc2o1	< 0.1	< 0.1	< 1	< 10	–	–	–
CCNC(=O)c1cnc2ccc(-c3ccc4oc(N)nc4c3)cn12	< 1	< 0.1	< 0.1	< 1	–	–	–
CN1CCN(c2nc3cc(-c4ccc5oc(N)nc5c4)ccc3c(=O)n2C)CC1	> 10	< 10	> 10	> 10	–	–	–
CC1(C)CN(C2CN(c3cnc4ccc(-c5ccc6oc(N)nc6c5)nc4n3)C2)CCO1	> 10	< 1	< 10	> 10	–	–	–

Now from value to compound, other results behind:

IC50 (PI3K β) [µM]	IC50 (PI3K α) [µM]	IC50 (PI3K γ; read-out: PI3K γ IC50) [µM]	IC50 (PI3K δ) [µM]	Structure (SMILES)	IC50 (mTORC) [µM]	IC50 (PI3K γ; read-out: PI3K δ IC50) [µM]	IC50 [1] [µM]
< 0.1	< 1	< 10	< 10	C[C@H]1CN(c2cnc3ccc(-c4ccc5oc(N)nc5c4)nc3n2)CCN1	–	–	–
< 10	< 1	< 1	> 10	Nc1nc2cc(-c3ccc4ncc(-c5cccnc5)nc4n3)ccc2o1	–	–	–
< 10	< 0.1	< 0.1	< 10	C[C@@H]1COCCN1c1cnc2ccc(-c3ccc4oc(N)nc4c3)nc2n1	–	–	–
< 10	< 1	> 10	< 10	CN1CCC(N(C)C(=O)c2cnc3ccc(-c4ccc5oc(N)nc5c4)cn23)CC1	–	–	–
> 10	> 10	> 10	> 10	Nc1nc2cc(-c3cn4c(C(=O)N5CCOCC5)cnc4cn3)ccc2o1	–	–	–
< 1	< 0.1	< 0.1	< 10	Cn1cc(-c2cnc3ccc(-c4ccc5oc(N)nc5c4)cc3n2)cn1	–	–	–
< 0.1	< 0.1	< 10	> 10	CN1CCN(c2cnc3ccc(-c4ccc5nc(N)sc5c4)cc3n2)CC1	–	–	–
> 10	> 10	> 10	> 10	Nc1nc2cc(-c3ccc4nc(N5CCOCC5)cnc4n3)ccc2o1	–	–	–
< 10	< 10	> 10	> 10	CN1CCN(c2ccc3ncc(-c4ccc5oc(N)nc5c4)cc3n2)CC1	–	–	–
> 10	> 10	> 10	> 10	CC(=O)Nc1cn2cc(-c3ccc4nccc(-c5ccncc5)c4c3)ccc2n1 [Compound 19]	–	–	–
< 10	< 0.1	< 0.1	< 0.1	CC(=O)N1CCC(Nc2cnc3ccc(-c4ccc5oc(N)nc5c4)cc3n2)CC1	–	–	–
< 10	< 0.1	< 10	< 10	Nc1nc2cc(-c3ccc4ncc(N5CC(N6CCN(C7CC7)CC6)C5)nc4n3)ccc2o1	–	–	–
< 0.1	< 0.1	< 1	< 10	CC1CN(c2cnc3ccc(-c4ccc5oc(N)nc5c4)cc3n2)CCN1 (centres unmarked)	–	–	–
